Here are results for 87 compounds from a melting point compilation (Tetko et al.; mined from patent text by program, amines drawn as free bases though some values may be those of a salt).

As a reminder, the melting point is the temperature of the solid-liquid transition.

SMILES strings stand for the structures.

For the compound `O=c1c2cc(F)c(N3CCCC3)cc2n(-c2ccc(F)cc2F)c(=O)n1OCc1ccccc1`, the melting point fell in the range of 212 to 214 °C.
Next, `O=C(O)CCCCc1ccccc1CNC(=O)C1Cc2ccccc2N1S(=O)(=O)c1ccc(-c2cccc(C(F)(F)F)c2)cc1` (configuration not stated): 98 to 99 °C; `CCOCCCNC(=O)c1ccc(S(=O)(=O)NC(=O)c2ccc(C(=O)NCC(=O)O)nc2)cc1`: 109 °C.
The figure for `COC(=O)c1ccc(NC(=O)Nc2ccc(OC)c(C34CC5CC(CC(C5)C3)C4)c2)cc1` is 223 to 224 °C; for `Nc1cc(Cl)cc(Cl)c1C(=O)NCc1cccc(Br)c1` it is 157 to 159 °C; for `CCC(=O)OCC12CCC(=O)C=C1CCC1C2CCC2(C)C(OC(=O)CC)CCC12` (configuration not stated) it is 82 to 84 °C.
Take `CC(C)(C)OC(=O)NCC(=O)N1CCC(=C2c3ccc(Cl)cc3CCc3cccnc32)CC1`: the melting point was 209 to 211 °C.
Next, `COC(=O)c1cccc(Sc2ccc(N(C)C)cc2)c1`: 88 to 90 °C; `COc1cc2nc(N)nc(-c3ccc(I)cc3)c2cc1OC`: 240 to 242 °C.
The figure for `O=C(Nc1cccnn1)N1CCN(c2cc(-c3ccc(F)cc3F)ncn2)CC1` is 249 to 250 °C; for `Cc1ccc(S(=O)(=O)OCC2CN(C)c3ccc(Cl)cc3O2)cc1` (configuration not stated) it is 65 to 67 °C.
The figure for `CC1(C)C2CCC1(CNC(=O)CBr)CC2` is 89 °C; for `CC1(C)C2CC[C@@]1(N1CCOCC1)[C@H](O)C2` it is 35 to 36 °C; for `CCC(C)Nc1ccc2n[nH]c(=O)n2n1` (configuration not stated) it is 214 to 216 °C.
For `CC1(C)c2cc(OS(C)(=O)=O)ccc2OC1OC(=O)c1ccccc1` (configuration not stated), the melting point was in the range of 102 to 104 °C.
With `Cc1cccc(NC(=O)c2ccccc2C)c1`, the melting point was in the range of 145 to 146 °C.
Consider `N#Cc1ccc(C(=O)N2C[C@H](OCc3ccccc3)C[C@H]2C(=O)O)cc1`, for which the melting point fell in the range of 58 to 60 °C.
As for `CCn1nc(-c2cccs2)c(C(=O)OCCOC(C)=O)c(Nc2cnccc2C)c1=O`, the melting point is 161 to 162 °C.
Next, `O=S(=O)(/C=C/c1ccc(Cl)cc1)CS(=O)(=O)/C=C/c1ccc(Cl)cc1`: 178 to 180 °C.
The figure for `CC(=CC#Cc1ccccc1)C(=O)NCCCCCC(=O)NO` is 135 to 137 °C; for `COc1cccc(-c2nc3sccn3c2-c2ccnc(N[C@@H]3CCCN(C[C@@H](O)CO)C3)n2)c1` it is 106 to 108 °C.
The figure for `Cc1cc2cc(CN3CCCC3)cnc2cc1NC(=O)c1ccc(-c2ccc(Cl)cc2)cc1F` is 195 to 198 °C; for `CC(C(=O)N(C)C)n1cc(Cl)c(-c2c(Cl)cccc2Cl)n1` (configuration not stated) it is 126 to 128 °C; for `CN(CCN1CCNC1=C(C#N)C#N)Cc1ccc(CN2CCCCC2)o1` it is 140 to 143 °C.
Compound `COc1ccc(OC)c(S(=O)(=O)n2c(CCC(=O)O)cc3nc(Cl)ccc32)c1` yielded a melting point of 204 to 209 °C.
The figure for `Cc1ncc2n1-c1ccc(C(C)O)cc1C(c1ccccc1)=NC2` (configuration not stated) is 223 to 225 °C; for `COc1cc(C)nc(NC(=O)NS(=O)(=O)c2ccccc2C(=O)Nc2nncs2)n1` it is 172 to 173 °C.
Next, `CC(=O)Nc1c(-c2ccccc2)nn2ccccc12`: 188 to 189 °C; `C=C(CCCO)c1ccc(C(=O)OC)cc1`: 28 to 30 °C; `Cc1cc(S(=O)(=O)NCC(C)c2ccccc2)ccc1Cl` (configuration not stated): 73 to 74 °C.
Next, `Cc1cc(C)cc(-c2nc(NC(=O)C(C)C)sc2-c2ccncc2)c1`: 270 to 272 °C; `O=C(NCCO[N+](=O)[O-])C1COc2ccccc2O1` (configuration not stated): 69 to 71 °C; `CCCc1c(OCC(O)COc2ccc3c(=O)cc(C=CC(=O)OCC)oc3c2CCC)ccc(C(C)=O)c1O` (configuration not stated): 125 to 127 °C.
For `O=C(Nc1ccc(S(=O)(=O)C(F)(F)F)cc1Cl)c1cc(S(=O)c2ccc(F)cc2)c2ccccc2c1O` (configuration not stated), the melting point fell in the range of 198 to 200 °C.
The figure for `CC(C)(CN)c1ccc(C(=O)NCCc2ccc3[nH]cc(C(=N)N)c3c2)cc1` is 67 to 70 °C.
In turn, `CCCc1c(OCCCCCOc2ccc3c(c2CCC)OC(C(=O)O)CC3)ccc(CC)c1O` (configuration not stated) had a melting point of 101 to 102 °C.
Take `O=C(Nc1ccc(C(F)(F)F)cc1)c1ccc(-c2nn(Cc3ccccc3)c3ccccc23)o1`: the melting point fell in the range of 205 to 206 °C.
The figure for `CON=C(C(=O)OC)c1ccccc1-c1nnc(-c2cccc(C)c2)o1` is 166 to 167 °C.
The figure for `CC(C)(C)c1ccc(/C=C/C(=O)OCc2ccccc2)cc1` is 59 to 62 °C; for `CCOC(Cc1ccc(OCc2nc(C(C)(C)C)oc2C)c2ccsc12)C(=O)O` (configuration not stated) it is 179 to 180 °C; for `COc1cc2cc3ncc(C#N)c(Nc4ccc(F)c(Cl)c4)c3cc2cc1OC` it is greater than 280 °C.
Next, `CCOc1ccc2c3c([nH]c2c1)CC(NC(C)=O)CC3` (configuration not stated): 184 to 186 °C; `COc1ccc(-n2c(-c3ccc(Cl)cc3Cl)nc(C(=O)NC3CCCCC3)c2C)cc1`: 160 to 161 °C; `Cc1nc2c(N)nc3ccccc3c2n1CCCNC(=O)N1CCOCC1`: 226 to 228 °C.
With `NC(=O)NN=Cc1c2ccccc2c(C=NNC(N)=O)c2ccccc12`, the melting point turned out to be 300 °C.
On to `CC(C)C[C@@H](C(=O)N1CCN(C(c2ccc(F)cc2)c2ccc(F)cc2)CC1)N(Cc1ccc(OC(C)(C)C)cc1)Cc1ccc(OC(C)(C)C)cc1`, for which the melting point lay within 62 to 67 °C.
The figure for `Cc1c(C)c2c(c(C)c1Nc1ccccc1)CC(C)(C)O2` is 148 to 150 °C; for `COc1ccc(C(=O)Nc2ccccc2C(=O)c2ccccn2)cc1` it is 132 to 133 °C; for `CCOC(=O)C(NC(=O)OC(C)(C)C)C(c1ccc(O)cc1)S(=O)(=O)C(F)(F)F` (configuration not stated) it is 47 to 49 °C.
Next, `NC(=O)Nc1cccc2c1C(=O)c1c-2n[nH]c1-c1csc(Cl)c1`: greater than 300 °C; `CCCn1nc(C(F)(F)CC)nc1Cc1ccc(-c2ccccc2-c2nnn[nH]2)nc1`: 142 to 144 °C; `CCCCCCCCCC#Cc1ccnc(C(=O)O)c1`: 93 to 94 °C.
The figure for `COC(=O)Cc1ccc(OCc2ccc3ccccc3n2)c(OC)c1` is 69 °C; for `COc1ccc(S(N)(=O)=O)cc1C(N)=O` it is 178 °C.
For the compound `CCOc1cc(OC2CCN(C)CC2)c(F)c([C@H](Nc2ccc(C(=N)N)cc2)C(=O)O)c1`, the melting point stood at 267 °C.
The figure for `CCC(C)OC(=O)C(S)(C#N)C1=NC(C)Cc2cc(OC)c(OC)cc21` (configuration not stated) is 113 to 114 °C; for `CCOC(=O)/C=C/c1ccc(OCCOC)cc1Oc1cc(C(F)(F)F)ccc1[N+](=O)[O-]` it is 108 to 110 °C.
`COc1ccc(S(=O)(=O)Nc2ccccc2NC(C)=O)cc1` gave a melting point of 160 to 161 °C.
The figure for `O=C(NCCCn1cnc(-c2ccccc2)c1)c1ccc(Br)cc1` is 132 to 135 °C.
Next, `COc1ccc2c(c1)C(=NNc1ccc(S(N)(=O)=O)cc1)C(=O)N2`: greater than 250 °C.
The figure for `COC(=O)c1cncc(OCc2cccc(OCc3nc(-c4ccccc4)oc3C)c2)c1` is 96 to 97 °C; for `CCOC(=O)c1c(N)c2cc(Cl)ccc2n1C(=O)C(F)(F)F` it is 249 to 251 °C; for `CC(C)c1oc(C=Cc2ccccc2)nc1C(=O)O` it is 141 to 142 °C.
In turn, `NC(=O)c1ccn(-c2ccc(Oc3ccccc3)cc2)n1` had a melting point of 165 to 167 °C.
Next, `O=C1Nc2c(cc([N+](=O)[O-])cc2[N+](=O)[O-])C1c1ncnc2c1cnn2C1CCCC1` (configuration not stated): 242 to 246 °C; `CCC(C)(C)C1=CC(=CC(=O)O)C=C(C(C)(C)CC)C1=O`: 109 to 110 °C; `O=C(Nc1ccc(Oc2ccnc(NC3CCCCC3)n2)c2ccccc12)c1cc(F)cc(N2CCCCC2)c1`: 118 to 120 °C.
Next, `COC(=O)c1sc2ccccc2c1S(N)(=O)=O`: 150 to 154 °C; `Cc1nc(C=O)cn1Cc1ccccc1`: 57 to 60 °C.
Next, `O=c1[nH]c2cscc2c(=O)n1CCN1CCN(c2cccc(Cl)c2)CC1`: 207 to 208 °C; `O=Cc1ccc(OCc2ccccc2F)c(Cc2ccccc2F)c1`: 71 °C.
In turn, `CC1(CC2CCCC2)Cc2cc(O)c(Cl)c(Cl)c2C1=O` (configuration not stated) had a melting point of 188 to 190 °C.
The figure for `CS(=O)c1nc(O)nn1-c1ccccc1` (configuration not stated) is 180 to 182 °C; for `CCCOCc1nc(C(C)(C)O)c(C(=O)O)n1Cc1ccc(-c2ccccc2C(=O)O)cc1` it is 109 to 111 °C.
As to `CC1=CC(=C(C#N)C#N)C=C(C)N1`, the melting point lay in the range of 158 to 159 °C.
`N#Cc1ccc(F)cc1-c1ccco1` yielded a melting point of 55 to 56 °C.
The figure for `COc1c(Cl)ccc(-c2nc(C(=O)OCc3ccc(OC(F)(F)F)cc3)c(Cl)c(N)c2F)c1F` is 155 to 156 °C.
As for `COC(=O)c1c[nH]c(C(=O)c2ccc(C)cc2)c1`, the melting point was in the range of 155 to 159 °C.
`Cc1cc2c(Cl)nnc(Cl)c2n1Cc1ccccc1` displayed a melting point of 122 to 124 °C.
The figure for `COc1cc(C(=O)N2CCC(CCN3CCC(C(=O)c4nc5ccccc5n4Cc4ccc(F)cc4)CC3)(c3ccc(C(F)(F)F)cc3)C2)cc(OC)c1OC` (configuration not stated) is 55 to 57 °C; for `Cc1cc2c(s1)Nc1ccccc1NC2=S` it is 259 to 260 °C; for `CC(=Cc1c[nH]c2ccc(CNS(C)(=O)=O)cc12)[N+](=O)[O-]` it is 201 to 202 °C.
Next, `Oc1ccc(Br)cc1Cc1ncc[nH]1`: 163 to 169 °C; `Cn1ncc(-c2ccccn2)c1S(N)(=O)=O`: 113 to 114 °C; `N#Cc1ccccc1Cn1cc(-c2ccnc(NCCCO)n2)n(-c2ccc(F)cc2)c1=O`: 166 to 167 °C.
Next, `Cn1nc(-c2c(NCc3ccccc3)nc(N)nc2-c2ccccc2)ccc1=O`: greater than 250 °C; `CC(Cc1ccncc1)(NC(=O)OC1C2CC3CC(C2)CC1C3)C(=O)NCCc1ccccc1` (configuration not stated): 176 °C.
